From US5236903A, “Polypeptide comprising repeated cell-adhesive core sequences” (Azuma; Ichiro, priority 1988, dated 1993)
Where two headings read alike, the source gives them in different places. Ends that are not written are not given here.

What was measured:
[1] = tested on: adhesion of B16-BL6 melanoma cells to fibronectin; assay: Inhibition of B16-BL6 cell adhesion to fibronectin-coated substrate by peptides present during culture; assay type: cell-based, mouse; details: for Adhesiveness adhered cell No./substrate (SD) / Percentage in parentheses (inhibition of adhesion to fibronectin): fibronectin coating
Procedure: First, microculture wells were preliminarily coated with 20 μg/ml of the polypeptide to be examined or 5 μg/ml of mouse fibronectin (obtained from Seikagaku Kogyo, Japan) which was used as a positive control. Next 0.05 ml/well of B16-BL6 melamona cells (2×10^4) labeled with a radioactive iodide [^125 I]IUdR was added thereto and the cells were cultured at 37° C. for 20 minutes. The number of cells thus adsorbed by the culture wells was determined by measuring the radioactivity. 1% bovine serum albumin (BSA) was employed as a negative control. The B16-BL6 melanoma cells were labeled by culturing the cells to be labeled at the logarithmic growth phase for 24 hours in an MEM medium containing 5% of FBS and 0.3 μCi/ml of [^125 I]IUdR (200 mCi/mmol; obtained from New England Nuclear, Boston, Mass., USA).
The labeled cells were washed with physiological saline solution twice and suspended in 0.02% EDTA for 1 minute. Subsequently the cells were collected and suspended in a serum-free MEM medium. The cell suspension thus obtained was used in the above examination. The unadsorbed cells in the well were washed away with PBS 4 times. Then the cells adsorbed by the well were dissolved in 0.1 ml of 0.1N NaOH. The number of adsorbed cells was determined by measuring the radioactivity of the dissolved cells.

B16-BL6 melanoma cells [2] = assay: Experimental metastasis to lung induced by intravenously injecting B16-BL6 melanoma cells; assay type: in vivo, C57BL/6 mice; details: for Antimetastatic effect on metastasis to lungs (in words): 500 μg mixed with cells, i.v.; for Antimetastatic effect compared with the control group (in words): 1,000 μg mixed with cells; for No. of instances of metastasis to lung mean ± SD: B16-BL6
[3] = tested on: adhesion of B16-BL6 melanoma cells to fibronectin; assay: Inhibition of B16-BL6 cell adhesion to fibronectin-coated substrate by peptides present during culture; assay type: cell-based, mouse
[4] = tested on: mouse B16-BL6 melanoma cells; assay: Adhesion of B16-BL6 melanoma cells to substrate coated with polypeptide or fibronectin; assay type: cell-based; details: 37° C., 20 minutes; for Adhesiveness adhered cell No./substrate (SD): wells coated with 20 μg/ml polypeptide, 5 μg/ml fibronectin or 1% BSA, 2×10^4 cells
From the text: The adhesiveness to target cells of the compound of the present invention was examined in accordance with a method reported by Saiki et al. […] Namely, a polypeptide of the present invention having a structure of ([…] and a molecular weight of approximately 5,000 prepared in the following Synthetic Example 1 and a comparative polypeptide, ([…], carrying a random sequence of the corresponding amino acids Arg, Gly and Asp and having a molecular weight of approximately 5,000 prepared in the following Synthetic Example 3 were employed. The adhesiveness of each compound was examined by using mouse B16-Bl6 melanoma cells as the target. First, microculture wells were preliminarily coated with 20 μg/ml of the polypeptide to be examined or 5 μg/ml of mouse fibronectin (obtained from Seikagaku Kogyo, Japan) which was used as a positive control. Next 0.05 ml/well of B16-BL6 melamona cells (2×10^4) labeled with a radioactive iodide [^125 I]IUdR was added thereto and the cells were cultured at 37° C. for 20 minutes. […] Subsequently the cells were collected and suspended in a serum-free MEM medium. The cell suspension thus obtained was used in the above examination. The unadsorbed cells in the well were washed away with PBS 4 times. Then the cells adsorbed by the well were dissolved in 0.1 ml of 0.1N NaOH. The number of adsorbed cells was determined by measuring the radioactivity of the dissolved cells.

B16-BL6 melanoma cells [5] = details: for Metastasis of the cancer to the lungs (in words): 100 μg on 1st or 7th day single dose or 50 μg on 7th, 10th, 13th, 16th days, random polypeptide 100 μg on 7th day
From the text: Furthermore, the antimetastatic effect of the compound of the present invention on a spontaneous metastasis model was examined. Namely, B16-BL6 cells were transplanted into the foot pads of C57BL/mice (each group having five animals). […] The transplanted cancer was removed on the 21st day and the mouse was anatomized 2 weeks later to examine the metastasis of the cancer into the lungs.

[6] = tested on: platelet aggregation induced by B16-BL6 melanoma cells; details: 100 μg/ml added to heparinized PRP 7 minutes before the cells; FIGS. 2 and 3
Procedure: The blood of a C57BL/6 mouse was centrifuged at 160×g for 15 minutes to give platelet rich plasma (PRP). As a control, platelet poor plasma (PPP) obtained by centrifuging the blood at 1,000×g for 10 minutes was employed. […] After preincubation for 5 to 7 minutes, the mixture was added to a suspension of B16-BL6 cells in physiological saline (approximately 10^6 /ml) and stirred at 37° C. at 1,000 rpm. During this period, the aggregation of the platelets was monitored with a dual aggregometer (Model 440; Chrono-Log, USA). […] FIGS. 1 to 3 together show the results.

[7] = tested on: Lewis lung cancer cells (3 LL); assay: Experimental metastasis to lung induced by injecting Lewis lung cancer cells (3LL); assay type: in vivo, C57BL/6 mice; details: for No. of instances of metastasis to lung mean ± SD: 3LL
Procedure: Namely, portions of 2, 20 and 100 μg of the above compound were each mixed with 3×10^4 Lewis lung cancer cells (3 LL) and administered to a group of C57BL/6 mice in the same manner as the one described in the above (b). Thus the antimetastatic effect of this compound was examined.

B16-BL6 melanoma cells [8] = assay: Distribution and retention of [125I]IUdR-labeled B16-BL6 melanoma cells in organs
Procedure: B16-BL6 cells at the logarithmic growth phase were labeled with [^125 I]IUdR. […] The liver, kidneys, spleen and lungs of each animal were removed 30 minutes or 24 hours after the administration and the radioactivity in these organs was determined. Mice which received PBS were used as control animals.

[9] = tested on: erythrocytes, spleen and thymus cells
[10] = incubated with 100 μg/ml peptide
[11] = incubated with 500 μg/ml peptide
[12] = Test 1, simultaneous (mixed with 5×10^4 cells, i.v.), 500 μg, colonies counted after 14 days
[13] = 100 μg/animal, administration date 7
[14] = 100 μg/animal, administration date 14
[15] = 100 μg/animal, administration date 20
[16] = 50 × 4 μg/animal, administration dates 7, 10, 13, 16
[17] = 500 μg/mouse with labeled cells i.v.

Compound: Cl.N=C(N)NCCC[C@H](N)C(=O)NCC(=O)N[C@@H](CC(=O)O)C(=O)O [Arg-Gly-Asp, L-arginylglycylaspartate hydrochloride, reference compound]
- Inhibition of adhesion of fibronectin to cells (in words) ([1]; 100 or 500 μg/ml peptide (His-Gly-Gly 500 μg/ml), hydrochloride): dose-dependently inhibited
- Adhesiveness adhered cell No./substrate (SD) [1, 10]: 5320 ± 52 adhered cell No./substrate
- Adhesiveness adhered cell No./substrate (SD) [1, 11]: 3708 ± 265 adhered cell No./substrate
- Percentage in parentheses (inhibition of adhesion to fibronectin) [1, 11]: 37%
- Amount needed relative to that of the polypeptide compound of the invention (B16-BL6 melanoma cells [2]; Test 1): approximately 6 times
- Antimetastatic effect on metastasis to lungs (in words) (B16-BL6 melanoma cells [2]; Test 1): no such antimetastatic effect
- Metastasis to lung mean ± SD (B16-BL6 melanoma cells [2]; [12]): 46 ± 14
- Metastasis to lung mean ± SD (B16-BL6 melanoma cells [2]; Test 1, simultaneous, 3000 μg, 14 days): 18 ± 24
- Amount needed to achieve an antimetastatic effect comparable to that of Poly(Arg-Gly-Asp) (B16-BL6 melanoma cells [2]; Test 1, versus 500 μg Poly(Arg-Gly-Asp)): 3,000 μg

Compound: O=C(O)CN(CCN(CC(=O)O)CC(=O)O)CC(=O)O [EDTA, reference compound]
- Inhibition of cell-adhesiveness of fibronectin (in words) ([3]; 5 mM): inhibited

Compound: Copoly(L-arginine hydrochloride, glycine, L-aspartic acid) [Poly(Arg, Gly, Asp), reference compound]
- Adsorption of B16-BL6 melanoma cells to coated wells (in words) [4]: scarcely any adsorption
- Adhesiveness adhered cell No./substrate (SD) [4]: 1750 ± 395 adhered cell No./substrate
- Antimetastatic effect on metastasis to lungs (in words) (B16-BL6 melanoma cells [2]; Test 1): no such antimetastatic effect
- Metastasis to lung mean ± SD (B16-BL6 melanoma cells [2]; [12]): 65 ± 4
- Metastasis of the cancer to the lungs (in words) (B16-BL6 melanoma cells [5]): did not suppress
- Number of metastatic cancer to lung (mm ± SD) (B16-BL6 melanoma cells [5]; [13]): 158 ± 62 mm
- Size of transplanted cancer (mm ± SD), observation on 21st day (B16-BL6 melanoma cells [5]; [13]): 11 ± 3 mm
- Suppression of platelet aggregation induced by B16-BL6 cells (in words) [6]: scarcely any suppression capability

Compound: Fibronectin: mouse fibronectin (obtained from Seikagaku Kogyo, Japan) used as a positive control
- Adsorption of B16-BL6 melanoma cells to coated wells (in words) [4]: accelerated the adsorption
- Adhesiveness adhered cell No./substrate (SD) [4]: 5849 ± 513 adhered cell No./substrate

Compound: Poly(L-arginyl-glycyl-L-aspartic acid)hydrochloride [Poly(Arg-Gly-Asp)-1500]
- Antimetastatic effect compared with the control group (in words) (B16-BL6 melanoma cells [2]; Test 2): remarkable antimetastatic effect
- Metastasis to lung mean ± SD (B16-BL6 melanoma cells [2]; Test 2, simultaneous, 1000 μg): 14 ± 4

Compound: Poly(L-arginylglycyl-L-aspartate hydrochloride) [Poly(Arg-Gly-Asp)]
- Adsorption of B16-BL6 melanoma cells to coated wells (in words) [4]: accelerated the adsorption
- Adhesiveness adhered cell No./substrate (SD) [4]: 7967 ± 910 adhered cell No./substrate
- Adhesiveness adhered cell No./substrate (SD) [1, 10]: 3687 ± 229 adhered cell No./substrate
- Adhesiveness adhered cell No./substrate (SD) [1, 11]: 3715 ± 231 adhered cell No./substrate
- Percentage in parentheses (inhibition of adhesion to fibronectin) [1, 11]: 36%
- Antimetastatic effect on metastasis to lungs (in words) (B16-BL6 melanoma cells [2]; Test 1): remarkably inhibited
- Metastasis to lung mean ± SD (B16-BL6 melanoma cells [2]; [12]): 23 ± 3
- Antimetastatic effect compared with the control group (in words) (B16-BL6 melanoma cells [2]; Test 2): remarkable antimetastatic effect
- Metastasis to lung mean ± SD (B16-BL6 melanoma cells [2]; Test 2, separate (i.v. 5 minutes after the cells), 1000 μg): 16 ± 4
- Metastasis to lung mean ± SD (B16-BL6 melanoma cells [2]; Test 2, simultaneous, 1000 μg): 6 ± 4
- Antimetastatic effect (in words) (B16-BL6 melanoma cells [2]; not mixed, i.v. to mice given B16-BL6 cells 5 minutes before): high antimetastatic effect
- No. of instances of metastasis to lung mean ± SD ([7]; 500 μg/animal): 34 ± 7
- Metastasis of the cancer to the lungs (in words) (B16-BL6 melanoma cells [5]): remarkably reduced
- Number of metastatic cancer to lung (mm ± SD) (B16-BL6 melanoma cells [5]; 100 μg/animal, administration date 1): 24 ± 17 mm
- Size of transplanted cancer (mm ± SD), observation on 21st day (B16-BL6 melanoma cells [5]; 100 μg/animal, administration date 1, topical): 8 ± 4 mm
- Number of metastatic cancer to lung (mm ± SD) (B16-BL6 melanoma cells [5]; [13]): 29 ± 22 mm
- Size of transplanted cancer (mm ± SD), observation on 21st day (B16-BL6 melanoma cells [5]; [13]): 9 ± 3 mm
- Number of metastatic cancer to lung (mm ± SD) (B16-BL6 melanoma cells [5]; [14]): 120 ± 29 mm
- Size of transplanted cancer (mm ± SD), observation on 21st day (B16-BL6 melanoma cells [5]; [14]): 10 ± 4 mm
- Number of metastatic cancer to lung (mm ± SD) (B16-BL6 melanoma cells [5]; [15]): 131 ± 79 mm
- Size of transplanted cancer (mm ± SD), observation on 21st day (B16-BL6 melanoma cells [5]; [15]): 8 ± 3 mm
- Number of metastatic cancer to lung (mm ± SD) (B16-BL6 melanoma cells [5]; [16]): 26 ± 29 mm
- Size of transplanted cancer (mm ± SD), observation on 21st day (B16-BL6 melanoma cells [5]; [16]): 8 ± 3 mm
- Growth of the transplanted cancer per se (in words) (B16-BL6 melanoma cells [5]; same regimens): could not be suppressed
- Suppression of platelet aggregation induced by B16-BL6 cells (in words) [6]: completely suppressed
- Inhibition of adhesion of fibronectin to cells (in words) ([3]; 100 or 500 μg/ml peptide (His-Gly-Gly 500 μg/ml)): inhibited
- Percentage in parentheses (inhibition of adhesion to fibronectin) ([3]; fibronectin coating, incubated with 100 μg/ml peptide): 37%
- Radioactivity in other organs including blood versus control (in words) (B16-BL6 melanoma cells [8]; 500 μg/mouse): no significant difference
- Radioactivity of the lungs versus control group (in words) (B16-BL6 melanoma cells [8]; 500 μg/mouse): markedly lower
- Radioactivity (cpm ± SD), Lung (B16-BL6 melanoma cells [8]; 500 μg/mouse with 2×10^4 labeled cells i.v., average of 3 animals): 1121 ± 281 cpm
- Radioactivity (cpm ± SD), Blood (1 ml) (B16-BL6 melanoma cells [8]; [17]): 304 ± 94 cpm
- Radioactivity (cpm ± SD), Kidney (B16-BL6 melanoma cells [8]; [17]): 73 ± 19 cpm
- Radioactivity (cpm ± SD), Liver (B16-BL6 melanoma cells [8]; [17]): 195 ± 42 cpm
- Radioactivity (cpm ± SD), Spleen (B16-BL6 melanoma cells [8]; [17]): 59 ± 7 cpm
- Percentage relative to the administered radioactivity, Lung (B16-BL6 melanoma cells [8]; administered 15308 ± 1605 cpm/2 × 10^4 cells): 7.3%
- Percentage relative to the administered radioactivity, Blood (1 ml) (B16-BL6 melanoma cells [8]; mouse, in vivo): 2.0%
- Percentage relative to the administered radioactivity, Kidney (B16-BL6 melanoma cells [8]; mouse, in vivo): 0.5%
- Percentage relative to the administered radioactivity, Liver (B16-BL6 melanoma cells [8]; mouse, in vivo): 1.3%
- Percentage relative to the administered radioactivity, Spleen (B16-BL6 melanoma cells [8]; mouse, in vivo): 0.4%

Compound: Poly(Tyr-Ile-Gly-Ser-Arg)HCl (YIGSR; not fully specified; printed as Poly(Tyr-Ile-Gly-Ser-Arg)HCl; also: HCl salt)
- No. of instances of metastasis to lung mean ± SD (B16-BL6 melanoma cells [2]; 5 μg/animal): 81 ± 9
- No. of instances of metastasis to lung mean ± SD (B16-BL6 melanoma cells [2]; 20 μg/animal): 43 ± 13
- No. of instances of metastasis to lung mean ± SD (B16-BL6 melanoma cells [2]; 100 μg/animal): 19 ± 9
- No. of instances of metastasis to lung mean ± SD ([7]; 100 μg/animal): 14 ± 11
- Antimetastatic activity relative to the original pentapeptide ([7]; mouse, in vivo): ~10 times
- Antimetastatic effect on metastasis to the lungs (in words) ([7]; polypeptide 2, 20 and 100 μg, pentapeptide 100 μg, mixed with cancer cells): remarkably inhibited
- Cytotoxicity on erythrocytes, spleen and thymus cells [9]: neither any cytotoxicity
